The record followed here is publication PMC8278649 (SLAS discovery : advancing life sciences R & D, 2020).

One test has as its target SCTR (secretin receptor) (Homo sapiens, UniProt P47872). In words: cAMP accumulation assay, agonist mode. The test is classed as cell-based. The settings on record: CHO-K1, read-out: Emax in cAMP accumulation assays. Background: Changes in cAMP serve as a functional read-out for many G protein-coupled receptors.
In another test the target is SCTR-SmBiT (UniProt P47872 23-440). The test is described as follows: cell-based or functional assay.
Chain of SCTR-SmBiT (P47872 23-440): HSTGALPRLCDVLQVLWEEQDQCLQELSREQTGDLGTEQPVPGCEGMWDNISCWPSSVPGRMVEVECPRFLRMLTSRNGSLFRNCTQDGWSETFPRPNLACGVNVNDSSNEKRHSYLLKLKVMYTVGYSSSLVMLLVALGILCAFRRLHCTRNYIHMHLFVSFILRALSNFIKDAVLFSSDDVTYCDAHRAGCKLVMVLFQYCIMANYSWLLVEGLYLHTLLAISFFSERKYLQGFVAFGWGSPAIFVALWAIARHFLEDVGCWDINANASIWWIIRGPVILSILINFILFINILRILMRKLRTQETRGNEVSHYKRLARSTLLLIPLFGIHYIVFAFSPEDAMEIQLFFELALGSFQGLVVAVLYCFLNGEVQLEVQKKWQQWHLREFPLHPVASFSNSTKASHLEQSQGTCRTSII

Chain of SCTR (secretin receptor) (P47872 23-440): as above

One may read the Emax as the size of the effect at its maximum, as opposed to the concentration needed. Consider `CC(C)C[C@H](NC(=O)CNC(=O)[C@H](CCC(N)=O)NC(=O)[C@H](CC(C)C)NC(=O)[C@H](CC(C)C)NC(=O)[C@H](CCCNC(=N)N)NC(=O)[C@H](CCC(N)=O)NC(=O)[C@H](CC(C)C)NC(=O)[C@H](CCCNC(=N)N)NC(=O)[C@H](C)NC(=O)CNC(=O)[C@H](CCC(=O)O)NC(=O)[C@H](CCCNC(=N)N)NC(=O)[C@H](CC(C)C)NC(=O)[C@H](CCCNC(=N)N)NC(=O)[C@H](CO)NC(=O)[C@H](CC(C)C)NC(=O)[C@H](CCC(=O)O)NC(=O)[C@H](CO)NC(=O)[C@@H](NC(=O)[C@H](Cc1ccccc1)NC(=O)[C@@H](NC(=O)CNC(=O)[C@@H](N)CC(=O)O)[C@@H](C)O)[C@@H](C)O)C(=O)N[C@H](C(N)=O)C(C)C` [Sec(3–27)], for which the Emax at SCTR (secretin receptor) turned out to be 30%. Take HSDGTFTSELSRLREGARLQRLL [Sec(1–23)]: the “β-arrestin-2 recruitment (NanoBiT, SCTR-SmBiT with LgBiT-ARRB2), EC50” value with SCTR-SmBiT turned out to be 1.3 µM.
